Source: paper PMC10851555, “Safinamide, an inhibitor of monoamine oxidase, modulates the magnitude, gating, and hysteresis of sodium ion current” (BMC Pharmacology & Toxicology, 2024)
“And” between values parts separate entries of the source, which are not always exact repeats. Equal entries are not always repeated. Where two headings read alike, the source gives them in different places.

What was measured:
[1] = system: voltage-gated sodium ion (NaV) channels in pituitary GH3 cells; assay: Whole-cell patch-clamp of INa induced by a 30-ms depolarizing pulse (−100 to −10 mV) in GH3 cells; assay type: cell-based, rat; conditions: for amplitude of INa(L) / amplitude of INa(T): 1 min after addition; for amplitude of INa(L): control 18 ± 3 pA; for amplitude of INa(T): control 512 ± 23 pA; for EC50: GH3 cells, modified Hill equation
[2] = system: voltage-gated sodium ion (NaV) channels in pituitary GH3 cells; assay: Persistent INa [INa(P)] and Hys(V) induced by upright isosceles-triangular Vramp (3.2 s) in GH3 cells; assay type: cell-based, rat; conditions: n = 7; for INa(P) amplitude at −10 mV [high-threshold Hys(V) loop]: control 175 ± 14 pA; for INa(P) amplitude at −80 mV [low-threshold Hys(V) loop]: control 288 ± 25 pA
Text: We further investigated whether SAF exposure modulated the magnitude and Hys(V) behavior of INa(P) induced by an isosceles-triangular Vramp in GH3 cells. To record whole-cell currents, the test cells were maintained at −80 mV and subjected to an upright isosceles-triangular Vramp ascending from –110 and +50 mV over 3.2 s (digital-to-analog conversion; Fig. 8A). […] For example, when test cells were subjected to an isosceles-triangular Vramp over 3.2 s (ramp speed of 0.1 mV/ms), the INa(P) amplitudes measured at −10 mV (high threshold) and −80 mV (low threshold) during the control period were 175 ± 14 pA (n = 7) and 288 ± 25 pA (n = 7), respectively. After the addition of 3 and 10 μM SAF, the INa(P) amplitude at −10 mV [high-threshold Hys(V) loop] was 194 ± 17 pA (n = 7, P < 0.05) and 219 ± 18 pA (n = 7, P < 0.05), respectively; the corresponding amplitudes at −80 mV [low-threshold Hys(V) loop] were 348 ± 29 pA (n = 7, P < 0.05) and 389 ± 31 pA (n = 7, P < 0.05), respectively. […] These findings indicate the unique Hys(V) behavior of INa(P) induced by an isosceles-triangular Vramp in GH3 cells; SAF exposure may increase the strength of Hys(V).
Fig. 8 Stimulatory effects of SAF on the voltage-dependent hysteresis [Hys(V)] behavior of persistent INa [INa(P)] induced by upright isosceles-triangular Vramp. Vramp was supplied for 3.2 s (ramp speed of 0.1 mV/ms; digital-to-analog conversion) to induce Hys(V) behavior in GH3 cells. (A) Current traces during the control period (left) and during the exposure to 10 μM SAF (right). The blue and red traces shown in each panel represent currents induced by the upsloping (ascending) and downsloping (descending) limbs of the upright isosceles-triangular Vramp, respectively. The inset indicates the voltage protocol. The dashed arrows indicate the direction of the current trajectory over time. (B) Summary graphs illustrating the effects of SAF (3 and 10 μM), SAF plus MGB, and SAF plus Ran on the amplitude of Vramp-induced INa(P) measured at −10 mV (ascending limb; left side) and −80 mV (descending limb; right side).

[3] = system: single NaV channels in GH3 cells; assay: Cell-attached single-channel NaV current recordings in GH3 cells; assay type: cell-based, rat; conditions: n = 7
Protocol: The composition of the external or bath solution [4-(2-hydroxyethyl)-1-piperazineethanesulfonic acid (HEPES)-buffered normal Tyrode’s solution] was as follows: 136.5 mM NaCl, 1.8 mM CaCl2, 5.4 mM KCl, 0.53 mM MgCl2, 5.5 mM glucose, and 5.5 mM HEPES–NaOH (pH 7.4). To measure K^+ currents (data not shown), we filled a patch pipette with an internal solution comprising 140 mM KCl, 1 mM MgCl2, 3 mM adenosine 5′-triphosphate disodium salt, 0.1 mM guanosine 5′-triphosphate disodium salt, 0.1 mM ethylene glycol tetraacetic acid, and 5 mM HEPES–KOH buffer (pH 7.2). To record the whole-cell INa, the K^+ in the internal solution was substituted with Cs^+, and the pH of the solution was adjusted to 7.2 by adding cesium hydroxide. In the single-channel experiments performed to record NaV currents, the pipette was filled with a Na^+-rich solution containing 136 mM NaCl, 0.53 mM MgCl2, 5.5 mM glucose, and 5.5 mM HEPES–NaOH (pH 7.2). The bath medium was a K^+-rich solution comprising 130 mM KCl, 10 mM NaCl, 3 mM MgCl2, 6 mM glucose, and 10 mM HEPES-KOH (pH 7.4). The solutions and culture media were generally filtered on the day of use by using sterile Acrodisc Syringe Filters containing a 0.2-μm Supor Membrane (Bio-Check; New Taipei City, Taiwan).
Single-channel NaV currents induced by depolarizing pulses ranging from −100 to −10 mV were measured and subsequently analyzed using pCLAMP 10.7. The opening events of the channels were generally evaluated through multi-Gaussian adjustments of the distribution of amplitude across channels. Functional independence between channels was determined by comparing the observed stationary probabilities with the values calculated based on the binomial law. For dwell-time analyses, only a single channel was used in the patch-clamp experiment.
To elucidate the mechanisms underlying the effects of SAF on the magnitude of INa, we investigated the actions of SAF and SAF plus MGB on single-channel NaV currents. This experiment was performed using the cell-attached configuration of the voltage-clamp test. Test cells were placed in K^+-rich solution, and the recording pipette was filled with Na^+-rich solution. SAF (10 μM) increased channel activity and decelerated current inactivation when the cells were exposed to depolarization stimuli ascending from –100 to –10 mV (rate of 0.1 Hz; Fig. 9A). Furthermore, the addition of MGB (10 μM) in the presence of 10 μM SAF reduced the probability of channel opening. […] Moreover, with the presence of 10 μM SAF, the mean open time of NaV channels was prolonged to […] (n = 7, P < 0.05) msec from a control value of 2.3 ± 0.3 msec (n = 7). […] Consistent with these findings, the mean open time of the NaV channel in the presence of 10 μM SAF (5.9 ± 1.1 ms; n = 7; P < 0.05) was longer than that in the control period (2.3 ± 0.3 ms, n = 7); the subsequent further addition of 10 μM MGB decreased the mean open time to 3.7 ± 0.7 ms (n = 7, P < 0.05) (Fig. 9B). […] MGB added during SAF exposure reversed the SAF-induced increase in NaV channel activity.

[4] = parameters: method as in PMID 15082032; conditions: cited from earlier work
[5] = system: MAO-B; conditions: read-out: IC50 for inhibition of MAO-B activity; cited from earlier work

C[C@H](NCc1ccc(OCc2cccc(F)c2)cc1)C(N)=O [SAF, (S)-2-((4-((3-fluorobenzyl)oxy)benzyl)amino)propanamide]
amplitude of INa(L) ([1]; 10 μM SAF, n = 8): 54 ± 9 pA
amplitude of INa(T) ([1]; 10 μM SAF, n = 8): 1387 ± 131 pA
time constant of the fast component of INa(T) inactivation ([1]; 30 μM SAF): no evident change
amplitude of INa(L) ([1]; 30 μM SAF, n = 8): 106 ± 17 pA
amplitude of INa(T) ([1]; 30 μM SAF, n = 8): 1991 ± 153 pA
time constant τinact(S), slow component of INa(T) inactivation ([1]; 30 μM SAF, control 5.1 ± 0.7 ms, n = 8): 10.2 ± 1.1 ms
maximal conductance of INa ([1]; 10 mM SAF (so in the source)): increased
sloping factor of the steady-state inactivation curve ([1]; 10 mM SAF (so in the source)): no change
half-maximal activation voltage of INa(T) (G–V relationship) ([1]; 3 or 10 μM SAF): shifted to more negative potentials
EC50 ([1]; current at beginning of 30-ms pulse −100 to −10 mV, read-out: EC50 for stimulation of transient INa [INa(T)]): 27.1 µM
EC50 ([1]; current at end of 30-ms pulse −100 to −10 mV, read-out: EC50 for stimulation of late INa [INa(L)]): 4.8 µM
amplitude of INa(L) after the removal of SAF ([1]; washout, n = 8): 20 ± 3 pA
amplitude of INa(T) after the removal of SAF ([1]; washout, n = 8): 523 ± 24 pA
INa(P) amplitude at −10 mV [high-threshold Hys(V) loop] ([2]; 3 μM SAF): 194 ± 17 pA
INa(P) amplitude at −80 mV [low-threshold Hys(V) loop] ([2]; 3 μM SAF): 348 ± 29 pA
INa(P) amplitude at −10 mV [high-threshold Hys(V) loop] ([2]; 10 μM SAF): 219 ± 18 pA
INa(P) amplitude at −80 mV [low-threshold Hys(V) loop] ([2]; 10 μM SAF): 389 ± 31 pA
channel activity (open-state probability) of NaV channels ([3]; 10 μM SAF, control 0.027 ± 0.007): 0.091 ± 0.006
mean open time of the NaV channel ([3]; 10 μM SAF, control 2.3 ± 0.3 ms, second statement (Fig. 9B)): 5.9 ± 1.1 ms
mean open time of NaV channels ([3]; 10 μM SAF, control 2.3 ± 0.3 msec, first statement): 6.5 ± 0.7 ms
amplitude of the single-channel current ([3]; SAF 10 μM, control 2.01 ± 0.35 pA): 2.03 ± 0.37 pA
